Measured values: patent US9618507B2, “Methods of treating rheumatoid arthritis” (Betanien Hospital, priority 2014, dated 2017)
Marks after values point to notes of the source that are not given here. Where a SMILES comes first, the peptide text is derived from it. [ ]: non-standard residue; d: D form. dPhe(4-Cl) = N[C@H](Cc1ccc(Cl)cc1)C(=O)O; d2Nal = N[C@H](Cc1ccc2ccccc2c1)C(=O)O; dCit = NC(=O)NCCC[C@@H](N)C(=O)O; d3Pal = N[C@H](Cc1cccnc1)C(=O)O

Experiments:
[1] = test system: TNF-α; test: Example 1: serum TNF-α, high sensitivity bead-based fluorescence immunoassay; assay type: in vivo, human; conditions: by day 5
Method: Ethical committee approval was obtained. […] Safety and efficacy visits, with blood sampling, were between 0730 and 0930 h on days 1 (baseline), 2, 3, 4, 5 (visit 5a), 10, and 15. There was an additional visit (visit 5b) between 1930 and 2130 h when maximum GnRH suppression was anticipated.
TNF-α was measured using a high sensitivity bead-based fluorescence immunoassay (Luminex Inc., Austin, Tex. USA) with multiplex technology according to the manufacturers' instructions. […] Samples were assayed together within the same microplate on the same day. The assay sensitivity for TNF-α was 0.5 pg/mL. Due to its skewed distribution, the statistical analysis gives both the log and relative change (%) of TNF-α from baseline.

[2] = test system: CRP; conditions: high gonadotropin patients, by day 15
Method: The protocol-specified primary and secondary intention-to-treat endpoints of the original AGRA trial were analyzed in these post hoc analyses. The primary endpoint was the baseline-adjusted between-group difference in DAS28-CRP (Wells et al., supra) by day 5b. […] Multiplex technology (Luminex Inc., Austin, Tex.) measured these serum cytokines using high-sensitivity assays (sensitivities <0.5 pg/mL, allowing the detection of very low concentrations of cytokines) and identical lots of critical reagent of negligible cross-reactivity <2%, according to manufacturers' instructions (Bio-Rad, Hercules, Calif.). […]
(§1) The original power calculation is previously reported (Kass A S, et al., Scand J Rheumatol Epub ahead of print 1 Nov. 2013). Baseline-adjusted between-group differences for all continuous endpoints were assessed with the use of analysis-of-covariance using outcome measurements at predefined time points as response variables, and treatment and baseline measurements as covariates. […]

[3] = test system: TNF-α; test: Example 2: serum cytokine, multiplex high-sensitivity assay, TNF-α; assay type: in vivo, human; conditions: high gonadotropin patients
Method: The protocol-specified primary and secondary intention-to-treat endpoints of the original AGRA trial were analyzed in these post hoc analyses. The primary endpoint was the baseline-adjusted between-group difference in DAS28-CRP (Wells et al., supra) by day 5b. Secondary endpoints included the baseline-adjusted between-group difference in cytokines, proportions of patients achieving at least a 20%, 50%, and 70% improvement on the ACR scale (Felson D T, et al., Arthritis Rheum 1995; 38:727-35), categorical DAS28-CRP (European League Against […] [EULAR]) responses (Wells et al., supra; van Gestel A M, et al., Arthritis Rheum 1996; 39:34-40), DAS28-CRP≦3.2 (Wells et al., supra), DAS28-CRP<2.6 (Wells et al., supra), and the incidence of adverse events. Protocol-specified DAS28 outcomes were preferentially CRP-based rather than erythrocyte sedimentation rate (ESR)-based, as CRP usually changes before ESR. […] Multiplex technology (Luminex Inc., Austin, Tex.) measured these serum cytokines using high-sensitivity assays (sensitivities <0.5 pg/mL, allowing the detection of very low concentrations of cytokines) and identical lots of critical reagent of negligible cross-reactivity <2%, according to manufacturers' instructions (Bio-Rad, Hercules, Calif.). […] To enable intention-to-treat analyses with all patients N=53, non-detectable values were set at the lower limit of detection for cytokines, as is common for CRP values.
as §1, with “covariates. Dichotomous endpoints were compared with the Pearson chi-square test or Suissa-Shuster exact unconditional test, depending on expected-value distribution (Lydersen S, et al., Stat Med 2009; 28:1159-75).” for “covariates.”

[4] = target: T1, GnRH receptors (Rattus norvegicus, UniProt P30969); conditions: rats; Rick F G, et al., Prostate 2011; cited from earlier work
T1 construct: through GnRH receptors in rats; host or cells: rats (in vivo)
T1 sequence (P30969 1-327): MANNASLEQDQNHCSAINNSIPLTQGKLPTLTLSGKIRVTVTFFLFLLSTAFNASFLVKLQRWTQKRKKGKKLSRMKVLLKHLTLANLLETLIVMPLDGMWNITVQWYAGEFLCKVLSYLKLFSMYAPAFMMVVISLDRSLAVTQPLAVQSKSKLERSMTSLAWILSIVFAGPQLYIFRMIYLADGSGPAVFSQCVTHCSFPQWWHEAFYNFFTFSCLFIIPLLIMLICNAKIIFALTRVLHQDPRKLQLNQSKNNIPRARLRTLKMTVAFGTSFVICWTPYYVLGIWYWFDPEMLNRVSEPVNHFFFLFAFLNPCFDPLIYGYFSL

[5] = test system: myeloma cells; conditions: Wen J, et al., Mol Cancer Ther 2011; cited from earlier work

**Q.** Which “TNF-α reduction (change from baseline)” value ([1]; all patients with detectable TNF-α, placebo −0.02) does the source give for `CC(=O)N[C@H](Cc1ccc2ccccc2c1)C(=O)N[C@H](Cc1ccc(Cl)cc1)C(=O)N[C@H](Cc1cccnc1)C(=O)N[C@@H](CO)C(=O)N[C@@H](Cc1ccc(O)cc1)C(=O)N[C@H](CCCNC(N)=O)C(=O)N[C@@H](CC(C)C)C(=O)N[C@@H](CCCNC(=N)N)C(=O)N1CCC[C@H]1C(=O)N[C@H](C)C(N)=O` [cetrorelix] (Ac-[d2Nal][dPhe(4-Cl)][d3Pal]SY[dCit]LRP[dA]-NH2) here?
**A.** Its value is −0.58 log pg/mL.

**Q.** And the “TNF-α between group difference vs placebo” value ([1]; 95% CI 0.08-1.01, p 0.023)?
**A.** Its value is 0.55 log pg/mL.

**Q.** What about the “TNF-α percentage change from baseline” value ([1]; placebo 11.1%) of the same compound?
**A.** Its value is −28.2%.

**Q.** What about the CRP between-group difference ([2]; 95% CI 0.22 to 10.7, P=0.042) of the same compound?
**A.** Its CRP between-group difference is 5.45 mg/L.

**Q.** What about the CRP change ([2]; placebo 0.85) of the same compound?
**A.** The CRP change was -5.1 mg/L.

**Q.** What about the “TNF-α level, Final Day 15” value ([3]; N = 27, mean ± SD) of the same compound?
**A.** Its value is 0.01 ± 2.1 log pg/mL.

**Q.** And the “TNF-α Change from baseline by day 15” value ([3]; N = 27, placebo +0.02)?
**A.** The value was −0.45 log pg/mL.

**Q.** And the “TNF-α Baseline-Adjusted Between-Group Difference” value ([3]; day 15, 95% CI (0.01, 0.96), P < 0.05)?
**A.** Its value is 0.49‡ log pg/mL.

**Q.** And the “pro-inflammatory cytokine gene expression through GnRH receptors” value [4]?
**A.** Its value is “directly decrease”.

**Q.** And the “pro-inflammatory cytokine gene expression through GnRH receptors” value [5]?
**A.** The value was “directly decrease”.
